Experimental data reported in article PMC12606641, “Surface Density of Mono- and Trivalent High-Mannan-Derived Targeting Structures with Different Affinities Impacts Cellular Uptake of Human Serum Albumin-Derived Nanocarriers” (Biomacromolecules, 2025).

Experiments:
CD206 CRD4 = molecular target: T1, CD206 CRD4 (Homo sapiens, UniProt P22897); assay: NanoDSF thermal shift binding study, CD206 CRD4; details: for Kd: CD206 CRD4, calculated from EC50 with KD=(1−fuo)×(EC50−[P]/2); for EC50: CD206 CRD4, 12 μM protein, unfolded fraction evaluated at 53 °C, Hill fit, read-out: EC50 (unfolded fraction vs TS concentration)
T1 construct: Carbohydrate recognition domain 4 of CD206; made in house
T1 sequence (P22897 655-778 limits assumed): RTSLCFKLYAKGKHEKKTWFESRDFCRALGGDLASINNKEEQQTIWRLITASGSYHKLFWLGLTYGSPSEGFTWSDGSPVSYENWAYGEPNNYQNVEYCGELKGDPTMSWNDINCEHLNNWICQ
Method: (§1) Thermal shift experiments were performed by using a Prometheus NanoDSF instrument (NanoTemper, Munich, Germany). […] Each ligand concentration was measured in triplicate. Samples were subjected to a controlled temperature increase from 20 to 85 °C at a rate of 1.5 °C per minute. Protein unfolding was monitored by measuring the fluorescence emission ratio at 350 and 330 nm. […] Data were analyzed according to the vertical slice method developed by Bai et al. The unfolded fraction was plotted against the ligand concentration, and EC50 values were determined by fitting the data to the Hill equation using GraphPad Prism 8.0.1. K D values were calculated using eq based on the unfolded fraction in the absence of ligand (f uo) and the total protein concentration ([P]). Associated errors were determined according to the standard error propagation rules. KD=(1−fuo)×(EC50−[P]/2) 1 […]
(§2) In this study, NanoDSF was used to investigate the binding affinity of unconjugated monovalent TSs ManN3 and Man3N3, as well as the trivalent TSs (Man)3N3 and (Man3)3N3 for isolated CRDs of CD206 and CD209. Utilization of isolated CRDs instead of the complete tetrameric and octameric receptors allowed an investigation of the affinity without the potential occurrence of avidity effects taking place on the receptor side. […] The observed binding affinities to the isolated CRDs were in the low millimolar range, with all ligands showing stabilizing effects. […] In the solid-phase assay, the biotinylated CRDs were immobilized on streptavidin-coated plates in a defined orientation, likely enhancing the effective presentation of the binding site. In contrast, NanoDSF measurements were conducted with isolated, solubilized monomeric CRDs without surface- or orientation-related effects. Additionally, steric effects and interactions arising from the linker moiety may also impact binding affinity.
3 NanoDSF study for binding of mono- and trivalent TSs ManN3, Man3N3, (Man)3N3, and (Man3)3N3 to the CRDs of CD206 and CD209. (A) Affinity of mono- and trivalent TSs for CRD4 of CD206. (B) Affinity of mono- and trivalent TSs for CRD of CD209. The unfolded fraction of each CRD at different TS concentrations was determined at 53 °C for CD206 and at 63 °C for CD209. The unfolded fraction was plotted against TS concentration, and EC50 values were determined using GraphPad Prism 8.0.1. The respective K D values were calculated from EC50, as described in section , and are given for each case. […]
6 NanoDSF binding study for mono- and trivalent TSs
6.1 Recombinant protein expression and purification.
6.1.1 Carbohydrate recognition domain 4 of CD206
CRD 4 of CD206 was expressed as described previously.50 Briefly, a pT5T expression vector containing CRD4 of CD206 was transformed into competent Escherichia coli (E. coli) BL21 (DE3) cells. The cells were grown in LB medium containing 100 µg/mL ampicillin at 37 °C and 160 rpm until they reached an optical density (OD₆₀₀) of approximately 0.7. Overexpression was induced by adding 0.4 mM Isopropyl-β-D-thiogalactopyranoside (IPTG) for approximately 2.5 hours at 37 °C. Cells were harvested by centrifugation (10.000 × g at 4 °C for 15 minutes) and resuspended in cold buffer A (10 mM Tris-Cl, pH 7.8). Lysis was performed by thoroughly sonicating the cell pellets. Cell debris and inclusion bodies were collected by centrifugation (18,000 × g at 4 °C for 15 minutes), and the supernatant was discarded.
The inclusion bodies were then solubilized in 100 mL of denaturing buffer B (6 M guanidine-HCl, 100 mM Tris-Cl, pH 7.0). After adding 2-mercaptoethanol (10 µL), the suspension was incubated at 4 °C on ice for 30 minutes. Insoluble impurities were removed by centrifugation (18,000 × g at 4 °C for 30 minutes). The supernatant was refolded by three-step dialysis against 2 L of buffer C (0.5 M NaCl, 25 mM Tris-Cl, pH 7.8, 25 mM CaCl₂) at 4 °C overnight. After centrifugation (18,000 × g at 4 °C for […]

CD209 CRD = molecular target: T2, CD209 CRD (Homo sapiens, UniProt Q9NNX6); assay: NanoDSF thermal shift binding study, CD209 CRD; details: for Kd: calculated from EC50 with KD=(1−fuo)×(EC50−[P]/2); for EC50: 12 μM protein, unfolded fraction evaluated at 63 °C, Hill fit, read-out: EC50 (unfolded fraction vs TS concentration)
T2 construct: Carbohydrate recognition domain of CD209; inferred from HisTrap/imidazole purification; made in house
T2 sequence (Q9NNX6 263-378 limits assumed): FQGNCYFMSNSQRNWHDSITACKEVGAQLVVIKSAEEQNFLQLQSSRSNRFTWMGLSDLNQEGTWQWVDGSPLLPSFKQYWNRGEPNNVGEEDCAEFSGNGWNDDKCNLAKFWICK
Method: as §1, §2
3 NanoDSF study for binding of mono- and trivalent TSs ManN3, Man3N3, (Man)3N3, and (Man3)3N3 to the CRDs of CD206 and CD209. (A) Affinity of mono- and trivalent TSs for CRD4 of CD206. (B) Affinity of mono- and trivalent TSs for CRD of CD209. The unfolded fraction of each CRD at different TS concentrations was determined at 53 °C for CD206 and at 63 °C for CD209. The unfolded fraction was plotted against TS concentration, and EC50 values were determined using GraphPad Prism 8.0.1. The respective K D values were calculated from EC50, as described in section , and are given for each case.
D (150 mM NaCl, 25 mM Tris-Cl, pH 7.8, 25 mM CaCl₂), the bound protein was eluted with buffer E (150 mM NaCl, 25 mM Tris-Cl, pH 7.8, 2.5 mM EDTA).
6.1.2 Carbohydrate recognition domain of CD209
The recombinant CRD of CD209 was expressed as described previously.55 Briefly, a pET-30 expression vector containing the CRD of CD209 was transformed into competent Escherichia coli (E. coli) BL21 (DE3) cells. The cells were grown in LB medium containing 100 µg/mL kanamycin at 37 °C and 160 rpm until they reached an optical density (OD₆₀₀) of approximately 0.7. Overexpression was induced by adding 0.5 mM IPTG for approximately 3 hours at 37 °C. Cells were harvested by centrifugation (10.000 × g at 4 °C for 15 minutes) and resuspended in cold buffer A (25 mM Tris-Cl, 150 mM NaCl, pH 8) supplemented with lysozyme, one tablet of protease inhibitor (cOmplete ™, Roche), and DNase I. Lysis was performed by thoroughly sonicating the resuspended cell pellets. Cell debris and inclusion bodies were collected by centrifugation (20,000 × g at 4 °C for 1 hour), and the supernatant was discarded. The inclusion bodies were resuspended in buffer A supplemented with 2 M urea and 1% Triton X-100. After a second centrifugation step, the inclusion bodies were solubilized in buffer A supplemented with 6 M guanidine hydrochloride and 0.01 % 2-mercaptoethanol. Insoluble impurities were removed by centrifugation (20.000 × g at 4 °C for 1 hour). The resulting supernatant was dialyzed […]

[1] = tested on: tetrameric extracellular domains (ECDs) of CD209; design: method as in Li et al.; details: TS presented in a trivalent manner, SPR, CD209 ECD; ref Li et al.; read-out: IC50 (binding affinity), trivalent presentation; cited from earlier work

Row | Compound | Kd (CD206 CRD4) [mM] | Kd (CD209 CRD) [mM] | IC50 [1] [mM] | EC50 (CD206 CRD4) [mM] | EC50 (CD209 CRD) [mM]
1 | [N-]=[N+]=NCCOCCOCCOCCC(=O)NC(COCCC(=O)NCCOCCOCCOCCn1cc(CO[C@H]2O[C@H](CO[C@H]3O[C@H](CO)[C@@H](O)[C@H](O)[C@@H]3O)[C@@H](O)[C@H](O[C@H]3O[C@H](CO)[C@@H](O)[C@H](O)[C@@H]3O)[C@@H]2O)nn1)(COCCC(=O)NCCOCCOCCOCCn1cc(CO[C@H]2O[C@H](CO[C@H]3O[C@H](CO)[C@@H](O)[C@H](O)[C@@H]3O)[C@@H](O)[C@H](O[C@H]3O[C@H](CO)[C@@H](O)[C@H](O)[C@@H]3O)[C@@H]2O)nn1)COCCC(=O)NCCOCCOCCOCCn1cc(CO[C@H]2O[C@H](CO[C@H]3O[C@H](CO)[C@@H](O)[C@H](O)[C@@H]3O)[C@@H](O)[C@H](O[C@H]3O[C@H](CO)[C@@H](O)[C@H](O)[C@@H]3O)[C@@H]2O)nn1 [(Man3)3N3] | 3.1 | > 26.6 |  |  | 
2 | trimannose |  |  | 0.0024 |  | 
3 | [N-]=[N+]=NCCOCCOCCOCCn1cc(CO[C@H]2O[C@H](CO[C@H]3O[C@H](CO)[C@@H](O)[C@H](O)[C@@H]3O)[C@@H](O)[C@H](O[C@H]3O[C@H](CO)[C@@H](O)[C@H](O)[C@@H]3O)[C@@H]2O)nn1 [Man3N3] | 6.9 | 7.2 |  | 14.9 ± 0.97 | 16.4 ± 1.9
4 | [N-]=[N+]=NCCOCCOCCOCCn1cc(CO[C@H]2O[C@H](CO)[C@@H](O)[C@H](O)[C@@H]2O)nn1 [ManN3] | 1.3 | > 36.3 |  | 3.1 ± 0.6 | > 79.8
5 | [N-]=[N+]=NCCOCCOCCOCCC(=O)NC(COCCC(=O)NCCOCCOCCOCCn1cc(CO[C@H]2O[C@H](CO)[C@@H](O)[C@H](O)[C@@H]2O)nn1)(COCCC(=O)NCCOCCOCCOCCn1cc(CO[C@H]2O[C@H](CO)[C@@H](O)[C@H](O)[C@@H]2O)nn1)COCCC(=O)NCCOCCOCCOCCn1cc(CO[C@H]2O[C@H](CO)[C@@H](O)[C@H](O)[C@@H]2O)nn1 [(Man)3N3] | 6.8 | 10.3 |  |  | 
